From the NIST ThermoML archive (doi:10.1021/je800894y)
Numbers after ± are expanded uncertainties.

Assay: xn = mol fraction of the nth substance listed
Details: Liquid; for viscosity: Vibrating wire viscometry; for mass density: vibrating-wire apparatus
[1] = 303.15 K, 10060 kPa, x2 = 0.4233
[2] = 303.15 K, 10070 kPa, x2 = 0.4233
[3] = 303.15 K, 30380 kPa, x2 = 0.4233
[4] = 303.15 K, 50510 kPa, x2 = 0.4233
[5] = 303.15 K, 70400 kPa, x2 = 0.4233
[6] = 303.15 K, 90250 kPa, x2 = 0.4233
[7] = 303.15 K, 110380 kPa, x2 = 0.4233
[8] = 303.15 K, 130280 kPa, x2 = 0.4233
[9] = 303.15 K, 150080 kPa, x2 = 0.4233
[10] = 303.15 K, 170210 kPa, x2 = 0.4233
[11] = 303.17 K, 30190 kPa, x2 = 0.7882
[12] = 303.17 K, 30740 kPa, x2 = 0.7882
[13] = 303.17 K, 50100 kPa, x2 = 0.7882
[14] = 303.17 K, 70730 kPa, x2 = 0.7882
[15] = 303.17 K, 90490 kPa, x2 = 0.7882
[16] = 303.17 K, 110640 kPa, x2 = 0.7882
[17] = 303.17 K, 130570 kPa, x2 = 0.7882
[18] = 303.17 K, 151340 kPa, x2 = 0.7882
[19] = 303.17 K, 170570 kPa, x2 = 0.7882
[20] = 303.18 K, 10600 kPa, x2 = 0.6039
[21] = 303.18 K, 30810 kPa, x2 = 0.6039
[22] = 303.18 K, 50820 kPa, x2 = 0.6039
[23] = 303.18 K, 70800 kPa, x2 = 0.6039
[24] = 303.18 K, 91100 kPa, x2 = 0.6039
[25] = 303.18 K, 100670 kPa, x2 = 0.6039
[26] = 303.18 K, 111110 kPa, x2 = 0.6039
[27] = 303.18 K, 130850 kPa, x2 = 0.6039
[28] = 303.18 K, 150500 kPa, x2 = 0.6039
[29] = 303.18 K, 170440 kPa, x2 = 0.6039
[30] = 348.11 K, 10450 kPa, x2 = 0.6039
[31] = 348.11 K, 10480 kPa, x2 = 0.6039
[32] = 348.11 K, 30310 kPa, x2 = 0.6039
[33] = 348.11 K, 50270 kPa, x2 = 0.6039
[34] = 348.11 K, 70180 kPa, x2 = 0.6039
[35] = 348.11 K, 90320 kPa, x2 = 0.6039
[36] = 348.11 K, 110880 kPa, x2 = 0.6039
[37] = 348.11 K, 130860 kPa, x2 = 0.6039
[38] = 348.11 K, 150870 kPa, x2 = 0.6039
[39] = 348.11 K, 170910 kPa, x2 = 0.6039
[40] = 348.25 K, 10070 kPa, x2 = 0.4233
[41] = 348.25 K, 10100 kPa, x2 = 0.4233
[42] = 348.25 K, 30390 kPa, x2 = 0.7882
[43] = 348.25 K, 30440 kPa, x2 = 0.4233
[44] = 348.25 K, 30610 kPa, x2 = 0.7882
[45] = 348.25 K, 50540 kPa, x2 = 0.7882
[46] = 348.25 K, 50590 kPa, x2 = 0.4233
[47] = 348.25 K, 70530 kPa, x2 = 0.4233
[48] = 348.25 K, 70650 kPa, x2 = 0.7882
[49] = 348.25 K, 90610 kPa, x2 = 0.4233
[50] = 348.25 K, 90680 kPa, x2 = 0.7882
[51] = 348.25 K, 110350 kPa, x2 = 0.7882
[52] = 348.25 K, 110610 kPa, x2 = 0.4233
[53] = 348.25 K, 130400 kPa, x2 = 0.4233
[54] = 348.25 K, 130530 kPa, x2 = 0.7882
[55] = 348.25 K, 150600 kPa, x2 = 0.7882
[56] = 348.25 K, 150670 kPa, x2 = 0.4233
[57] = 348.25 K, 169670 kPa, x2 = 0.4233
[58] = 348.25 K, 170310 kPa, x2 = 0.7882

**Q.** What does the source list for CC(C)CCCC(C)CCCC(C)CCCCC(C)CCCC(C)CCCC(C)C (stereo unspecified) [2,6,10,15,19,23-hexamethyltetracosane] + O=C=O?
**A.** viscosity [1]: 9.12 ± 0.19 mPa·s; mass density [1]: 814.8 ± 1.6 kg/m3; viscosity [2]: 9.17 ± 0.19 mPa·s; mass density [2]: 815.3 ± 1.6 kg/m3; viscosity [3]: 12.7 ± 0.3 mPa·s; mass density [3]: 828 ± 1.7 kg/m3; viscosity [4]: 17.3 ± 0.4 mPa·s; mass density [4]: 839.2 ± 1.7 kg/m3; viscosity [5]: 23 ± 0.5 mPa·s; mass density [5]: 849.3 ± 1.7 kg/m3; viscosity [6]: 30.5 ± 0.6 mPa·s; mass density [6]: 856.5 ± 1.7 kg/m3; viscosity [7]: 40.1 ± 0.8 mPa·s; mass density [7]: 862.1 ± 1.7 kg/m3; viscosity [8]: 52.3 ± 1.1 mPa·s; mass density [8]: 867.8 ± 1.7 kg/m3; viscosity [9]: 67.8 ± 1.4 mPa·s; mass density [9]: 869.4 ± 1.7 kg/m3; viscosity [10]: 85.9 ± 1.9 mPa·s; mass density [10]: 882.8 ± 1.8 kg/m3; viscosity [11]: 2.36 ± 0.05 mPa·s; mass density [11]: 854.3 ± 1.7 kg/m3; viscosity [12]: 2.24 ± 0.05 mPa·s; mass density [12]: 847.4 ± 1.7 kg/m3; viscosity [13]: 2.79 ± 0.06 mPa·s; mass density [13]: 863.4 ± 1.7 kg/m3; viscosity [14]: 3.43 ± 0.07 mPa·s; mass density [14]: 877.8 ± 1.8 kg/m3; viscosity [15]: 4.15 ± 0.09 mPa·s; mass density [15]: 890 ± 1.8 kg/m3; viscosity [16]: 4.95 ± 0.1 mPa·s; mass density [16]: 901.1 ± 1.8 kg/m3; viscosity [17]: 5.91 ± 0.12 mPa·s; mass density [17]: 911 ± 1.8 kg/m3; viscosity [18]: 6.94 ± 0.14 mPa·s; mass density [18]: 922.8 ± 1.8 kg/m3; viscosity [19]: 8.13 ± 0.17 mPa·s; mass density [19]: 934.8 ± 1.9 kg/m3; viscosity [20]: 4.92 ± 0.1 mPa·s; mass density [20]: 823.9 ± 1.6 kg/m3; viscosity [21]: 6.58 ± 0.14 mPa·s; mass density [21]: 838.1 ± 1.7 kg/m3; viscosity [22]: 8.58 ± 0.18 mPa·s; mass density [22]: 850.4 ± 1.7 kg/m3; viscosity [23]: 11 ± 0.2 mPa·s; mass density [23]: 861 ± 1.7 kg/m3; viscosity [24]: 14 ± 0.3 mPa·s; mass density [24]: 871.1 ± 1.7 kg/m3; viscosity [25]: 15.6 ± 0.3 mPa·s; mass density [25]: 874.8 ± 1.8 kg/m3; viscosity [26]: 17.5 ± 0.4 mPa·s; mass density [26]: 879.9 ± 1.8 kg/m3; viscosity [27]: 21.7 ± 0.4 mPa·s; mass density [27]: 888.1 ± 1.8 kg/m3; viscosity [28]: 26.5 ± 0.5 mPa·s; mass density [28]: 897.9 ± 1.8 kg/m3; viscosity [29]: 32 ± 0.7 mPa·s; mass density [29]: 910.5 ± 1.8 kg/m3; viscosity [30]: 1.92 ± 0.04 mPa·s; mass density [30]: 787.7 ± 1.6 kg/m3; viscosity [31]: 1.92 ± 0.04 mPa·s; mass density [31]: 788.1 ± 1.6 kg/m3; viscosity [32]: 2.49 ± 0.05 mPa·s; mass density [32]: 806 ± 1.6 kg/m3; viscosity [33]: 3.13 ± 0.06 mPa·s; mass density [33]: 820.7 ± 1.6 kg/m3; viscosity [34]: 3.85 ± 0.08 mPa·s; mass density [34]: 833.3 ± 1.7 kg/m3; viscosity [35]: 4.68 ± 0.1 mPa·s; mass density [35]: 844.4 ± 1.7 kg/m3; viscosity [36]: 5.64 ± 0.12 mPa·s; mass density [36]: 854.6 ± 1.7 kg/m3; viscosity [37]: 6.7 ± 0.14 mPa·s; mass density [37]: 863.7 ± 1.7 kg/m3; viscosity [38]: 7.9 ± 0.16 mPa·s; mass density [38]: 872.1 ± 1.7 kg/m3; viscosity [39]: 9.28 ± 0.19 mPa·s; mass density [39]: 879.8 ± 1.8 kg/m3; viscosity [40]: 2.99 ± 0.06 mPa·s; mass density [40]: 783.6 ± 1.6 kg/m3; viscosity [41]: 2.98 ± 0.06 mPa·s; mass density [41]: 783.4 ± 1.6 kg/m3; viscosity [42]: 1.08 ± 0.04 mPa·s; mass density [42]: 806 ± 1.6 kg/m3; viscosity [43]: 3.95 ± 0.08 mPa·s; mass density [43]: 799.2 ± 1.6 kg/m3; viscosity [44]: 1.07 ± 0.03 mPa·s; mass density [44]: 806.9 ± 1.6 kg/m3; viscosity [45]: 1.34 ± 0.03 mPa·s; mass density [45]: 827 ± 1.7 kg/m3; viscosity [46]: 5.1 ± 0.11 mPa·s; mass density [46]: 812.2 ± 1.6 kg/m3; viscosity [47]: 6.42 ± 0.13 mPa·s; mass density [47]: 823.5 ± 1.6 kg/m3; viscosity [48]: 1.61 ± 0.03 mPa·s; mass density [48]: 844 ± 1.7 kg/m3; viscosity [49]: 7.98 ± 0.16 mPa·s; mass density [49]: 833.7 ± 1.7 kg/m3; viscosity [50]: 1.91 ± 0.04 mPa·s; mass density [50]: 858.4 ± 1.7 kg/m3; viscosity [51]: 2.22 ± 0.05 mPa·s; mass density [51]: 870.8 ± 1.7 kg/m3; viscosity [52]: 9.83 ± 0.2 mPa·s; mass density [52]: 842.8 ± 1.7 kg/m3; viscosity [53]: 11.9 ± 0.3 mPa·s; mass density [53]: 851.3 ± 1.7 kg/m3; viscosity [54]: 2.57 ± 0.05 mPa·s; mass density [54]: 882.3 ± 1.8 kg/m3; viscosity [55]: 2.94 ± 0.06 mPa·s; mass density [55]: 892.7 ± 1.8 kg/m3; viscosity [56]: 14.5 ± 0.3 mPa·s; mass density [56]: 859.3 ± 1.7 kg/m3; viscosity [57]: 17.3 ± 0.4 mPa·s; mass density [57]: 866.3 ± 1.7 kg/m3; viscosity [58]: 3.34 ± 0.07 mPa·s; mass density [58]: 902 ± 1.8 kg/m3
